Where “and” joins values, the source holds several entries; their conditions need not be identical. Identical values can stand only once.
How the values were obtained:
[1] = Struck et al., J. Med. Chem., 9, 414-417 (1966); cited from earlier work
[2] = maximally tolerated dose, mice, ip qD x 10 (Table B); format: in vivo, mouse (B6D2F1); conditions: B6D2F1 mice, ip qD x 10 regimen
Description: (§1) In this system, groups of eight B6D2F1 mice are inoculated ip with 0.5 ml of a 10% (w:v) brei of B15 melanoma prepared from pooled sc tumors excised at 14-21 days from […] donor mice. Daily treatment is begun 24 hours after tumor implantation and is continued daily for ten (10) days. The route of drug administration is ip. The mice are monitored daily for survival for sixty (60) days. Antitumor activity is assessed by prolongation of median survival time. An ILS of ≥25% indicates activity in this tumor model.
^(b) maximally tolerated dose for B6D2F1 mice on an ip qD .times

[3] = test system: M5076 reticulum cell sarcoma; test: ip M5076 reticulum cell sarcoma tumor model; format: in vivo, mouse (B6D2F); conditions: mice bearing ip M5076 reticulum cell sarcoma; ip daily for 10 days
Description: (§2) Another chemosensitive tumor model is intraperitoneally (ip) implanted M5076 reticulum cell sarocma in mice. In this system B6D2F female mice are inoculated with 0.5 ml of a 10 percent (w:v) brei of M5076 prepared from pooled subcutaneous (sc) tumors excised at about 21 days from C57B1/6 donors. Drugs are administered ip. Daily treatment is begun 24 hours after implantation and is continued for ten days. The treatment regimen for M5076 is more prolonged than for P388 because of the slower growth rate and longer control survival time of the M5076 tumor. A drug is considered active in this tumor model if it produces ≥25% ILS.

P388 leukemia = test: in vivo ip P388 lymphocytic leukemia mouse model; set-up: species or system mouse (B6D2F1); conditions: mice bearing ip P388 leukemia; ip Days 1-5; figures separated by slashes are from separate experiments
Excerpt: P388 lymphocytic leukemia is currently the most widely used animal tumor model for screening for antitumor agents and for detailed evaluation of active compounds. This tumor system is widely accepted as an antitumor agent screening tool because it is sensitive to virtually all of the clinically active antineoplastic agents; quantitative and reproducible; amenable for large-scale screening; and predictive for activity in other animal tumor models.
10^6 P388 leukemia cells are inoculated ip in B6D2F1 mice. Twenty-four hours later, if the tumor inoculum proves to be free of bacterial contamination (as determined by 24 hours incubation in thioglycollate broth), animals are randomized into groups of 6 and housed in shoebox cages. The compound to be evaluated is dissolved in a minimal volume of N,N-dimethylacetamide (DMA). An equal volume of saline is added; if the drug comes out of solution an equal volume of polyethoxylated castor oil is added and then saline qs to a concentration such that the desired dose is delivered in 0.5 ml. The final concentration of DMA and polyethoxylated castor oil is 10 percent. Dilutions for lower doses are made with saline so there is a decreasing proportion of organic solvents in the vehicle with decreasing dosage. This vehicle provides a soluble formulation. […] Animals are monitored daily for mortality and experiments are terminated after 45 days. […]

B16 melanoma = test: in vivo ip B16 melanoma assay; set-up: species or system mouse (B6D2F1); conditions: mice bearing ip B16 melanoma; ip daily for 10 days
Description: as §1

[4] = maximally tolerated dose, mice, ip qD x 10 (Table C); format: in vivo, mouse (B6D2F female); conditions: B6D2F female mice, ip qD x 10 regimen
Description: as §2
^(b) maximally tolerated dose for B6D2F female mice on ip qD ×

Row | SMILES | cytotoxic activity [1] | MTD (maximally tolerated dose) [2] [mg/kg] | ILS (MAX): maximum increase in lifespan [3] [%] | ILS (max): maximum increase in lifespan (P388 leukemia) | ILS: maximum increase in lifespan (B16 melanoma) [%] | MTD (maximally tolerated dose) [4] [mg/kg]
1 | c1ccc(P(CCP(c2ccccc2)c2ccccc2)c2ccccc2)cc1 [1,2-bis(diphenylphosphino)ethane] | cytotoxic activity |  |  |  |  | 
2 | [Cl][Au].c1ccc(P(CCP(CCP(c2ccccc2)c2ccccc2)c2ccccc2)CCP(c2ccccc2)c2ccccc2)cc1 (stereo not drawn) [Compound 1, Chloro[1,1,4,7,10,10-hexaphenyl-1,4,7,10-tetraphosphodecane-P^1, P^4, P^7, P^10]gold(I)] |  | 2 | 38 | 40% and 65% | 37 | 2

— patent US4758589A, “Tetraphosphine-coordinated gold(I) complexes” (SmithKline Beckman Corporation, priority 1987, dated 1988)
